Our source for the MIC, IC50 and diameter of the inhibition zone (DIZ) values is ChEMBL document CHEMBL4270617, “Design, synthesis, antimicrobial, antiquorum-sensing and antitumor evaluation of new series of pyrazolopyridine derivatives” (Eur J Med Chem, 2018).

One assay deals with Bacillus cereus. Kind of assay: Antibacterial activity against Bacillus cereus UW 85 after 24 hrs by two-fold serial dilution method. The class given is functional. To be noted: UW 85, 24 h.
The next assay deals with HepG2. In words: Antitumor activity against human HepG2 cells assessed as inhibition of cell proliferation after 48 hrs by MTT assay. The class given is functional, cell-based. To be noted: HepG2, 48 h.
A further assay relates to Aspergillus fumigatus. In words: Antifungal activity against Aspergillus fumigatus 293 after 48 hrs by two-fold serial dilution method. To be noted: Aspergillus fumigatus, 293, 48 h. It is filed as functional.
In the next assay the test system is MCF7. Kind of assay: Antitumor activity against human MCF7 cells assessed as inhibition of cell proliferation after 48 hrs by MTT assay. The class given is functional, cell-based. Particulars: MCF7, 48 h. (In general: Tetrazolium dyes change colour on reduction, which living cells bring about.)
For a further assay, the system named is Candida albicans. In words: Antifungal activity against Candida albicans after 48 hrs by two-fold serial dilution method. It is filed as functional.
For another assay, the system named is Aspergillus flavus. Kind of assay: Antifungal activity against Aspergillus flavus 3375 after 48 hrs by two-fold serial dilution method. It is filed as functional. Particulars: Aspergillus flavus, 3375, 48 h.
The next assay has as its system Staphylococcus aureus. In words: Antibacterial activity against Staphylococcus aureus ATCC 29213 after 24 hrs by two-fold serial dilution method. The class given is functional. To be noted: ATCC 29213, 24 h.
The next assay relates to HeLa. Kind of assay: Antitumor activity against human HeLa cells assessed as inhibition of cell proliferation after 48 hrs by MTT assay. The class given is functional, cell-based. To be noted: read-out: IC50.
The test system of a further assay is Escherichia coli. Kind of assay: Antibacterial activity against Escherichia coli ATCC 12435 after 24 hrs by two-fold serial dilution method. The class given is functional. Particulars: ATCC 12435, 24 h.
In assay [1] the test system is Chromobacterium violaceum. Kind of assay: Inhibition of quorum sensing system in Chromobacterium violaceum ATCC 12472 assessed as diameter of violacein pigment inhibition at 5 mg/ml after 48 hrs.
The subject of the next assay is Pseudomonas aeruginosa. In words: Antibacterial activity against Pseudomonas aeruginosa PAO1 after 24 hrs by two-fold serial dilution method. The class given is functional. To be noted: PAO1, 24 h.
Assay [2] is described as follows: Displacement of methyl green from DNA (unknown origin) incubated in dark for 24 hrs.

pIC50: −log10 of the molar value.

The MIC is the lowest concentration found to suppress growth. The pIC50 is the IC50 on a negative log10 scale, so that one unit is a factor of ten.

Consider `CCOC(=O)C1=C(N/N=C(\C#N)C(N)=O)Nc2[nH]nc(C)c2C1c1ccc(N(C)C)cc1` (stereo not drawn), for which the minimum inhibitory concentration (MIC) was determined as 2290 µM with Bacillus cereus; 4580 µM against Aspergillus fumigatus; 4580 µM in the assay with Candida albicans; 4580 µM in the assay with Aspergillus flavus; 4580 µM against Staphylococcus aureus; 1150 µM against Escherichia coli. In the assay with Pseudomonas aeruginosa, this molecule displayed an MIC of 1150 µM. Further, the pIC50 was 4.32 in the assay on HepG2, 4.30 with MCF7 and 4.33 in the assay with HeLa. Besides, the diameter of the inhibition zone (DIZ) in assay [1] was < 2 mm.
On to `CCOC(=O)C1=C(N/C=N/c2ccccn2)Nc2[nH]nc(C)c2C1c1ccc(N(C)C)cc1` (stereo not drawn), for which the MIC in the assay with Bacillus cereus came out at 70.1 µM; in the assay with Aspergillus fumigatus it was 281 µM; against Candida albicans, 561 µM; in the assay with Aspergillus flavus it was 281 µM; against Staphylococcus aureus, 70.1 µM; in the assay on Escherichia coli, 281 µM. In addition, the lowest concentration to inhibit growth against Pseudomonas aeruginosa (MIC) was 281 µM. In addition, the pIC50 is 4.58 in the assay with HepG2, 4.43 in the assay with MCF7, 4.55 in assay [2] and 4.53 in the assay with HeLa. Further, the diameter of the inhibition zone (DIZ) in assay [1] is < 2 mm.
With `Oc1cc(O)c2c(c1)O[C@H](c1ccc(O)c(O)c1)[C@@H](O)C2`, in assay [1], the diameter of the inhibition zone (DIZ) is 2 mm.
For `OC(Cn1cncn1)(Cn1cncn1)c1ccc(F)cc1F` [FLUCONAZOLE], the MIC against Bacillus cereus is > 200 µg/mL; against Aspergillus fumigatus, > 200 µg/mL; in the assay with Candida albicans, 6530 µM; against Aspergillus flavus it was > 200 µg/mL; against Escherichia coli, > 200 µg/mL; in the assay with Pseudomonas aeruginosa it was > 200 µg/mL.
For `CCOC(=O)C1=C(N/N=C(\c2ccc([N+](=O)[O-])cc2)N2CCN(c3ccc(F)cc3)CC2)Nc2[nH]nc(C)c2C1c1ccc(N(C)C)cc1` (stereo not drawn), the MIC in the assay on Bacillus cereus was 374 µM; in the assay on Aspergillus fumigatus it was 3000 µM; against Candida albicans it was 749 µM; in the assay on Aspergillus flavus, 3000 µM; against Staphylococcus aureus, 749 µM; with Escherichia coli, 187 µM. In the assay on Pseudomonas aeruginosa, this molecule registered an MIC of 187 µM. Further, the pIC50 was 4.04 in the assay on HepG2, < 4.00 in the assay with MCF7, 4.29 in [2] and 4.06 in the assay on HeLa. Also, the diameter of the inhibition zone (DIZ) in assay [1] is < 2 mm.
With `COc1ccc(C2C(C#N)=C(NC(=O)c3ccccc3)Nc3[nH]nc(-c4ccccc4)c32)cc1` (stereo not drawn), the pIC50 in [2] is 4.08 to 4.40.
Consider `CCOC(=O)C1=C(N/N=C(/C#N)C(=O)OCC)Nc2[nH]nc(C)c2C1c1ccc(N(C)C)cc1` (stereo not drawn), for which the MIC with Bacillus cereus was 1070 µM; in the assay with Aspergillus fumigatus, 2150 µM; against Candida albicans, 537 µM; in the assay on Aspergillus flavus it was 2150 µM; in the assay on Staphylococcus aureus it was 2150 µM; in the assay with Escherichia coli, 1070 µM. Further, in the assay on Pseudomonas aeruginosa, 1070 µM was the least that counted as inhibitory (MIC). Also, the pIC50 in the assay with HepG2 was 4.33; in the assay with MCF7 it was 4.45; in the assay on HeLa, 4.41. Besides, the diameter of the inhibition zone (DIZ) in assay [1] was < 2 mm.
For `CCOC(=O)C1=C(N/N=C(/Cl)c2ccc([N+](=O)[O-])cc2)Nc2[nH]nc(C)c2C1c1ccc(N(C)C)cc1` (stereo not drawn), the MIC against Bacillus cereus is 1910 µM; against Aspergillus fumigatus, 1910 µM; against Candida albicans it was 3820 µM; in the assay with Aspergillus flavus, 1910 µM; with Staphylococcus aureus, 954 µM; against Escherichia coli, 1910 µM. The molecule also gave an MIC in the assay with Pseudomonas aeruginosa of 954 µM. Further, the pIC50 in the assay on HepG2 was 4.26; in the assay on MCF7 it was 4.28; with HeLa it was 4.34. For the same molecule, the diameter of the inhibition zone (DIZ) in assay [1] is < 2 mm.
In the case of `CC1(C)S[C@@H]2[C@H](NC(=O)[C@H](N)c3ccccc3)C(=O)N2[C@H]1C(=O)O` [AMPICILLIN], the results for the MIC in the assay on Bacillus cereus, in the assay with Staphylococcus aureus and with Escherichia coli were 1430 µM, 716 µM and 28.6 µM, respectively.
For the molecule `CCOC(=O)C1=C(N/C=N/c2ccc(C)cc2)Nc2[nH]nc(C)c2C1c1ccc(N(C)C)cc1` (stereo not drawn), the MIC in the assay with Bacillus cereus is 136 µM; against Aspergillus fumigatus, 2180 µM; against Candida albicans, > 200 µg/mL; in the assay on Aspergillus flavus it was 2180 µM; against Staphylococcus aureus, 136 µM; in the assay on Escherichia coli, 2180 µM. In the assay with Pseudomonas aeruginosa, this molecule displayed an MIC of 2180 µM. Further, the pIC50 in the assay on HepG2 is 4.35; in the assay on MCF7 it was 4.30; in assay [2] it was 4.12; in the assay with HeLa, 4.36. Also, the diameter of the inhibition zone (DIZ) in [1] was < 2 mm.
As for `CCOC(=O)C(=NNC1=C(C(=O)OCC)C(c2ccc(N(C)C)cc2)c2c(C)n[nH]c2N1)C(=O)OCC` (stereo not drawn), the minimal inhibitory concentration (MIC) is 976 µM against Bacillus cereus; 1950 µM in the assay with Aspergillus fumigatus; 3900 µM in the assay on Candida albicans; 1950 µM against Aspergillus flavus; 976 µM against Staphylococcus aureus; 976 µM in the assay on Escherichia coli. In addition, in the assay with Pseudomonas aeruginosa, the lowest concentration to inhibit growth (MIC) was 976 µM. The pIC50 with HepG2 was 4.09; with MCF7, 4.05; with HeLa it was 4.08. The diameter of the inhibition zone (DIZ) in [1] is < 2 mm.
With `COc1ccc(C2C(C#N)=C(/N=C/OC(C)=O)Nc3[nH]nc(-c4ccccc4)c32)cc1` (stereo not drawn), the negative logarithm of the IC50 (pIC50) in assay [2] was 4.08 to 4.40.
`CCOC(=O)C1=C(N/N=C(/Cl)C#N)Nc2[nH]nc(C)c2C1c1ccc(N(C)C)cc1` (stereo not drawn): the minimal inhibitory concentration (MIC) in the assay with Bacillus cereus is 2340 µM; in the assay on Aspergillus fumigatus, 4670 µM; against Candida albicans it was 4670 µM; against Aspergillus flavus it was 2340 µM; in the assay with Staphylococcus aureus, > 200 µg/mL; against Escherichia coli, 2340 µM. The minimum inhibitory concentration (MIC) against Pseudomonas aeruginosa amounted to 1170 µM. Moreover, the pIC50 was 4.63 in the assay on HepG2, 4.63 with MCF7 and 4.58 in the assay on HeLa. The diameter of the inhibition zone (DIZ) in assay [1] was < 2 mm.
For the molecule `CCOC(=O)C1=C(N/N=C(/C(=O)Br)c2ccc(Br)cc2)Nc2[nH]nc(C)c2C1c1ccc(N(C)C)cc1` (stereo not drawn), the MIC is 99.1 µM against Bacillus cereus; 793 µM in the assay on Aspergillus fumigatus; 397 µM in the assay on Candida albicans; 1590 µM in the assay on Aspergillus flavus; 99.1 µM in the assay with Staphylococcus aureus; 397 µM in the assay on Escherichia coli. This molecule returned an MIC in the assay on Pseudomonas aeruginosa of 397 µM. Further, the pIC50 was 4.19 with HepG2, 4.21 in the assay with MCF7, 4.36 in [2] and 4.16 in the assay with HeLa. For the same molecule, in assay [1], the diameter of the inhibition zone (DIZ) is < 2 mm.
`COc1ccc(C2C(C#N)=C(NC(=O)/C=C/C(=O)O)Nc3[nH]nc(-c4ccccc4)c32)cc1` (stereo not drawn): in [2], the pIC50 was 4.08 to 4.40.
Consider `CCOC(=O)C1=C(N/N=C(/Br)c2ccccc2)Nc2[nH]nc(C)c2C1c1ccc(N(C)C)cc1` (stereo not drawn), for which the MIC against Bacillus cereus came to 955 µM; against Aspergillus fumigatus it was 1910 µM; against Candida albicans, 1910 µM; against Aspergillus flavus it was 1910 µM; in the assay with Staphylococcus aureus it was 955 µM; in the assay on Escherichia coli it was 955 µM. In addition, in the assay on Pseudomonas aeruginosa, inhibition of growth (MIC) required 478 µM. The pIC50 with HepG2 is 4.14; with MCF7, 4.11; in the assay on HeLa it was 4.12. The diameter of the inhibition zone (DIZ) in assay [1] was determined as 11 mm.
Consider `CCOC(=O)C1=C(N/N=C(\C(C)=O)C(=O)c2ccccc2)Nc2[nH]nc(C)c2C1c1ccc(N(C)C)cc1` (stereo not drawn), for which the MIC against Bacillus cereus came out at 1940 µM; in the assay on Aspergillus fumigatus, 3890 µM; against Candida albicans, 1940 µM; in the assay with Aspergillus flavus it was 3890 µM; with Staphylococcus aureus, 1940 µM; in the assay on Escherichia coli it was 1940 µM. The MIC in the assay with Pseudomonas aeruginosa is 972 µM. For the same molecule, the results for the pIC50 in the assay on HepG2, with MCF7 and in the assay on HeLa were 4.37, 4.32 and 4.32, respectively. Besides, the diameter of the inhibition zone (DIZ) in assay [1] was < 2 mm.
